Data from US9850283B2, “Macrocyclic inhibitors of the PD-1/PD-L1 and CD80(B7-1)/PD-L1 protein/protein interactions” (BRISTOL-MYERS SQUIBB COMPANY, priority 2013, dated 2017).
Read-outs that look alike come from different tables or passages of the source. Starred links: 1 amine or outer side, 2 acyl side, 3 side chain; linkers in the order of their positions; H or OH if unused. Positions of bridges follow the written chain, without caps; N, C: chain ends. Non-standard residues stand in square brackets, D forms with d. Residues, ends and D or L forms follow the SMILES beside them. ξ: configuration not given here. Pro(trans-4-cHex) = O=C(O)[C@@H]1C[C@@H](C2CCCCC2)CN1; Trp(5-OH) = N[C@@H](Cc1c[nH]c2ccc(O)cc12)C(=O)O; X15 = O=C([C@H](Cc1ccc(Cl)c(F)c1)N[*:1])[*:2]; Phe(3,5-F2) = N[C@@H](Cc1cc(F)cc(F)c1)C(=O)O; Ala(4-thiazolyl) = N[C@@H](Cc1cscn1)C(=O)O; Phe(4-F) = N[C@@H](Cc1ccc(F)cc1)C(=O)O; Pro(5S-Me) = C[C@H]1CC[C@@H](C(=O)O)N1; Bta = N[C@@H](Cc1csc2ccccc12)C(=O)O; Hyp = O=C(O)[C@@H]1C[C@@H](O)CN1; NMeF = CN[C@@H](Cc1ccccc1)C(=O)O; hPhe = N[C@@H](CCc1ccccc1)C(=O)O; NMeNle = CCCC[C@H](NC)C(=O)O; dPip = O=C(O)[C@H]1CCCCN1; NMeA = CN[C@@H](C)C(=O)O; Orn = NCCC[C@H](N)C(=O)O; Dab = NCC[C@H](N)C(=O)O; Dap = NC[C@H](N)C(=O)O; ξC = NC(CS)C(=O)O; Sar = CNCC(=O)O

Assays:
Human PD-L1/PD-1 = target: T1, Human PD-L1/PD-1 (Homo sapiens, UniProt Q9NZQ7); experiment: HTRF PD-1-Ig/PD-L1-His binding assay (human PD-L1)
T1 construct: made in house; host or cells: HEK293T
T1 sequence (Q9NZQ7 with tags, fused parts or gaps): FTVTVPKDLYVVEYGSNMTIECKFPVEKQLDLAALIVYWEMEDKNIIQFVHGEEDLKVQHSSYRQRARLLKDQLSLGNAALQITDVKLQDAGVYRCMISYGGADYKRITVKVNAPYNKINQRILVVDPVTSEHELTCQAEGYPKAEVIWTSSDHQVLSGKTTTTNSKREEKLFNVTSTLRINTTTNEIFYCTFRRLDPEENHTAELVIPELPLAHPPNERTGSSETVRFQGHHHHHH
Outline: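 Steps: truncated PD-1-Ig and PD-L1-His fusions are incubated in dPBS containing 0.1% (w/v) BSA and 0.05% (v/v) Tween-20. Detection antibodies are then added (Eu cryptate anti-Ig at 1 nM final, APC anti-His at 20 nM final), and time-resolved FRET is measured.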

[1] = target: T2, LK35.2-hPD-L1 cells / PE-labeled PD-1-Ig (Homo sapiens, UniProt Q9NZQ7); experiment: LK35.2-hPD-L1 cell binding high-content screening assay; assay type: cell-based
T2 construct: expressed in transfected cells; host or cells: LK35.2 mouse B cell line
T2 sequence (Q9NZQ7 19-290): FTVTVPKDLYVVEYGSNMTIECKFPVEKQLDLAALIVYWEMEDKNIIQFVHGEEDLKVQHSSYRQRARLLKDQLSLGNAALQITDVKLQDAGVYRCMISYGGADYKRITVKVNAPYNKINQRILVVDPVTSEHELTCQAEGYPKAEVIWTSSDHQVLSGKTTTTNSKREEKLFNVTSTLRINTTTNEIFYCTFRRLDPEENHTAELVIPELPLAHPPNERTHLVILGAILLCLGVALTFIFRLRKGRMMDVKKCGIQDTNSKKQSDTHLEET
Outline: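 Readout: high-content imaging of PE-PD-1-Ig bound to LK35.2-hPD-L1 cells. Cells plated overnight (RPMI/10% FCS); compound + 1 nM PE-PD-1-Ig, 1 h, 37 °C; 3× dPBS wash before imaging.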

[2] = cluster symbol, read-out: HTRF IC50 cluster
[3] = cell binding assay, cell line not given, cluster symbol, read-out: CBA IC50 cluster
[4] = cell line of CBA not given (LK35.2-hPD-L1 or 293T-hPD-L1), read-out: CBA IC50 value
[5] = cluster symbol, cell line of CBA not given (LK35.2-hPD-L1 or 293T-hPD-L1), read-out: CBA IC50 cluster

SMILES	IC50 (Human PD-L1/PD-1; [2])	IC50 [1, 3]	IC50 (Human PD-L1/PD-1; read-out: HTRF IC50 value)	IC50 [1, 4]	IC50 [1, 5]
CCCC[C@H]1C(=O)N(C)[C@@H](CCCC)C(=O)N[C@@H](CCCN)C(=O)N[C@H](C(=O)NCC(N)=O)CSCC(=O)N[C@@H](Cc2ccc(O)cc2)C(=O)N(C)[C@@H](C)C(=O)N[C@@H](CC(N)=O)C(=O)N2CCC[C@H]2C(=O)N[C@@H](CN)C(=O)N[C@@H](CC(C)C)C(=O)N2C[C@H](C3CCCCC3)C[C@H]2C(=O)N[C@@H](Cc2c[nH]c3ccccc23)C(=O)N[C@@H](CO)C(=O)N[C@@H](Cc2c[nH]c3ccccc23)C(=O)N1C [Example 14007] ({CH2CO}-Y[NMeA]NP[Dap]L[Pro(trans-4-cHex)]WSW[NMeNle][NMeNle][Orn]CG-NH2; thioether N-14)	0.385 to 6.74 nM	0.158 to 4.71 nM	–	–	–
CCCC[C@H]1C(=O)N(C)[C@@H](CCCC)C(=O)N[C@@H](CCCNC(=N)N)C(=O)N[C@H](C(=O)NCC(N)=O)CSCC(=O)N[C@@H](Cc2ccc(O)cc2)C(=O)N(C)[C@@H](C)C(=O)N[C@@H](CC(N)=O)C(=O)N2CCC[C@H]2C(=O)N[C@@H](Cc2cnc[nH]2)C(=O)N[C@@H](CC(C)C)C(=O)N2C[C@H](C#N)C[C@H]2C(=O)N[C@@H](Cc2c[nH]c3ccccc23)C(=O)N[C@@H](CO)C(=O)N[C@@H](Cc2c[nH]c3ccccc23)C(=O)N1C [Example 6022]	0.385 to 6.74 nM	0.158 to 4.71 nM	–	–	–
CCCC[C@H]1C(=O)N[C@@H](CCCNC(=N)N)C(=O)N[C@H](C(=O)NCC(N)=O)CSCC(=O)N[C@@H](Cc2ccccc2)C(=O)N(C)[C@@H](C)C(=O)N[C@@H](CC(N)=O)C(=O)N2CCC[C@H]2C(=O)N[C@@H](Cc2cnc[nH]2)C(=O)N[C@@H](CC(C)C)C(=O)N(C)CC(=O)N[C@@H](Cc2c[nH]c3ccccc23)C(=O)N[C@@H](CO)C(=O)N[C@@H](Cc2c[nH]c3ccccc23)C(=O)N[C@@H](CCc2ccccc2)C(=O)N1C [Example 1006] ({CH2CO}-F[NMeA]NPHL[Sar]WSW[hPhe][NMeNle]RCG-NH2; thioether N-14)	> 30.5 nM	–	–	–	> 74.3 nM
CCCC[C@H]1C(=O)N(C)CC(=O)N[C@@H](CC(=O)O)C(=O)N[C@@H](C(C)C)C(=O)N(C)[C@@H](Cc2ccccc2)C(=O)N[C@@H](Cc2ccc(O)cc2)C(=O)N2CCCC[C@@H]2C(=O)N[C@@H](Cc2c[nH]c3ccccc23)C(=O)N[C@@H](Cc2ccc(O)cc2)C(=O)N[C@@H](CC(C)C)C(=O)N[C@H](C(=O)NCC(N)=O)CSCC(=O)N[C@@H](Cc2ccccc2)C(=O)N(C)[C@@H](Cc2ccccc2)C(=O)N1C [Example 3572] ({CH2CO}-F[NMeF][NMeNle][Sar]DV[NMeF]Y[dPip]WYLCG-NH2; thioether N-13)	0.385 to 6.74 nM	0.158 to 4.71 nM	–	–	–
CCCC[C@H]1C(=O)N(C)CC(=O)N[C@@H](CC(=O)O)C(=O)N[C@@H](C(C)C)C(=O)N(C)[C@@H](Cc2ccccc2)C(=O)N[C@@H](Cc2ccc(F)cc2)C(=O)N(C)CC(=O)N[C@@H](Cc2c[nH]c3ccccc23)C(=O)N[C@@H](Cc2ccc(O)cc2)C(=O)N[C@@H](CC(C)C)C(=O)N[C@H](C(=O)NCC(N)=O)CSCC(=O)N[C@@H](Cc2ccccc2)C(=O)N(C)[C@@H](Cc2ccccc2)C(=O)N1C [Example 3077] ({CH2CO}-F[NMeF][NMeNle][Sar]DV[NMeF][Phe(4-F)][Sar]WYLCG-NH2; thioether N-13)	> 30.5 nM	–	–	–	> 74.3 nM
CCCC[C@H]1C(=O)N(C)CC(=O)N[C@@H](CC(=O)O)C(=O)N[C@@H](C(C)C)C(=O)N(C)[C@@H](Cc2ccccc2)C(=O)N[C@@H](Cc2ccc(O)cc2)C(=O)N(C)CC(=O)N[C@@H](Cc2c[nH]c3ccc(O)cc23)C(=O)N[C@@H](Cc2ccc(O)cc2)C(=O)N[C@@H](CC(C)C)C(=O)N[C@H](C(=O)NCC(N)=O)CSCC(=O)N[C@@H](Cc2ccccc2)C(=O)N(C)[C@@H](Cc2ccccc2)C(=O)N1C [Example 3147] ({CH2CO}-F[NMeF][NMeNle][Sar]DV[NMeF]Y[Sar][Trp(5-OH)]YLCG-NH2; thioether N-13)	–	–	750 nM	1730 nM	–
CCCC[C@H]1C(=O)N(C)[C@@H](CCCC)C(=O)N[C@@H](CCCNC(=N)N)C(=O)NC(C(=O)N[C@@H](CO)C(N)=O)CSCC(=O)N[C@@H](Cc2ccc(O)cc2)C(=O)N(C)[C@@H](C)C(=O)N[C@@H](CC(N)=O)C(=O)N2CCC[C@H]2C(=O)N[C@@H](CO)C(=O)N[C@@H](CC(C)C)C(=O)N2C[C@H](O)C[C@H]2C(=O)N[C@@H](Cc2c[nH]c3ccccc23)C(=O)N[C@@H](CO)C(=O)N[C@@H](Cc2c[nH]c3ccccc23)C(=O)N1C (stereo partly shown) [Example 9080] ({CH2CO}-Y[NMeA]NPSL[Hyp]WSW[NMeNle][NMeNle]R[ξC]S-NH2; thioether N-14)	0.385 to 6.74 nM	0.158 to 4.71 nM	–	–	–

Next, values leading:

IC50 (Human PD-L1/PD-1; [2])	IC50 [1, 3]	IC50 (Human PD-L1/PD-1; read-out: HTRF IC50 value)	IC50 [1, 4]	IC50 [1, 5]	SMILES
6.76 to 30.3 nM	4.78 to 72.9 nM	–	–	–	CCCC[C@H]1C(=O)N(C)[C@@H](CCCC)C(=O)N[C@@H](CCCNC(=N)N)C(=O)N[C@H](C(=O)NCC(N)=O)CSCC(=O)N[C@@H](Cc2cc(F)cc(F)c2)C(=O)N(C)[C@@H](C)C(=O)N[C@@H](CC(N)=O)C(=O)N2CCC[C@H]2C(=O)N[C@@H](Cc2cnc[nH]2)C(=O)N[C@@H](CC(C)C)C(=O)N2C[C@H](O)C[C@H]2C(=O)N[C@@H](Cc2c[nH]c3ccccc23)C(=O)N[C@@H](CO)C(=O)N[C@@H](Cc2c[nH]c3ccccc23)C(=O)N1C [Example 7051] ({CH2CO}-[Phe(3,5-F2)][NMeA]NPHL[Hyp]WSW[NMeNle][NMeNle]RCG-NH2; thioether N-14)
6.76 to 30.3 nM	0.158 to 4.71 nM	–	–	–	CCCC[C@H]1C(=O)N(C)[C@@H](CCCC)C(=O)N[C@@H](CCCNC(=N)N)C(=O)NC(C(=O)NCC(N)=O)CSCC(=O)N[C@@H](Cc2ccc(O)cc2)C(=O)N(C)[C@@H](C)C(=O)N[C@@H](CC(N)=O)C(=O)N2C[C@H](O)C[C@H]2C(=O)N[C@@H](Cc2cnc[nH]2)C(=O)N[C@@H](CC(C)C)C(=O)N2CCC[C@@H]2C(=O)N[C@@H](Cc2c[nH]c3ccccc23)C(=O)N[C@@H](CO)C(=O)N[C@@H](Cc2csc3ccccc23)C(=O)N1C (stereo partly shown) [Example 9001] ({CH2CO}-Y[NMeA]N[Hyp]HL[dP]WS[Bta][NMeNle][NMeNle]R[ξC]G-NH2; thioether N-14)
0.385 to 6.74 nM	4.78 to 72.9 nM	–	–	–	CCCC[C@H]1C(=O)N(C)[C@@H](COc2cccc(C)c2)C(=O)N[C@@H](CCN)C(=O)N[C@H](C(=O)NCC(N)=O)CSCC(=O)N[C@@H](Cc2ccc(O)cc2)C(=O)N(C)[C@@H](C)C(=O)N[C@@H](CC(N)=O)C(=O)N2CCC[C@H]2C(=O)N[C@@H](CN)C(=O)N[C@@H](CCC(=O)O)C(=O)N2C[C@H](O)C[C@H]2C(=O)N[C@@H](Cc2c[nH]c3ccccc23)C(=O)N[C@@H](CO)C(=O)N[C@@H](Cc2c[nH]c3ccccc23)C(=O)N1C [Example 6030]
–	–	> 10000 nM	> 10000 nM	–	CCCC[C@H]1C(=O)N(C)[C@@H](CCCC)C(=O)N[C@@H](CCCNC(=N)N)C(=O)N[C@H](C(=O)NCC(N)=O)CSCC(=O)N[C@@H](Cc2ccccc2)C(=O)N(C)[C@@H](C)C(=O)N[C@@H](CC(N)=O)C(=O)N2CCC[C@H]2C(=O)N[C@@H](Cc2cnc[nH]2)C(=O)N[C@@H](CC(C)C)C(=O)N(C)CC(=O)N[C@@H](Cc2cscn2)C(=O)N[C@@H](CO)C(=O)N[C@@H](Cc2c[nH]c3ccccc23)C(=O)N1C [Example 1010] ({CH2CO}-F[NMeA]NPHL[Sar][Ala(4-thiazolyl)]SW[NMeNle][NMeNle]RCG-NH2; thioether N-14)
6.76 to 30.3 nM	–	–	–	0.158 to 4.71 nM	CCCC[C@H]1C(=O)N(C)CC(=O)N[C@@H](CC(=O)O)C(=O)N[C@@H](C(C)C)C(=O)N(C)[C@@H](Cc2ccccc2)C(=O)N[C@@H](Cc2ccc(O)cc2)C(=O)N(C)CC(=O)N[C@@H](Cc2c[nH]c3ccccc23)C(=O)N[C@@H](Cc2ccc(O)cc2)C(=O)N[C@@H](CC(C)C)C(=O)N[C@H](C(=O)NCC(N)=O)CSCC(=O)N[C@@H](Cc2ccc(Cl)c(F)c2)C(=O)N(C)[C@@H](Cc2ccccc2)C(=O)N1C [Example 3180] ({CH2CO}-[X15][NMeF][NMeNle][Sar]DV[NMeF]Y[Sar]WYLCG-NH2; thioether N-13)
6.76 to 30.3 nM	0.158 to 4.71 nM	–	–	–	CCCC[C@H]1C(=O)N(C)[C@@H](CCCC)C(=O)N[C@@H](CCCNC(=N)N)C(=O)NC(C(=O)NCC(N)=O)CSCC(=O)N[C@@H](Cc2ccc(O)cc2)C(=O)N(C)[C@@H](C)C(=O)N[C@@H](CC(N)=O)C(=O)N2CCC[C@H]2C(=O)N[C@@H](Cc2cnc[nH]2)C(=O)N[C@@H](CC(C)C)C(=O)N2[C@@H](C)CC[C@H]2C(=O)N[C@@H](Cc2c[nH]c3ccccc23)C(=O)N[C@@H](CO)C(=O)N[C@@H](Cc2csc3ccccc23)C(=O)N1C (stereo partly drawn) [Example 9015] ({CH2CO}-Y[NMeA]NPHL[Pro(5S-Me)]WS[Bta][NMeNle][NMeNle]R[ξC]G-NH2; thioether N-14)
0.385 to 6.74 nM	0.158 to 4.71 nM	–	–	–	CCCC[C@H]1C(=O)N(C)[C@@H](CCCC)C(=O)N[C@@H](CC(C)C)C(=O)N[C@H](C(=O)NCC(N)=O)CSCC(=O)N[C@@H](Cc2ccc(O)cc2)C(=O)N(C)[C@@H](C)C(=O)N[C@@H](CC(N)=O)C(=O)N2CCC[C@H]2C(=O)N[C@@H](CN)C(=O)N[C@@H](CC(C)C)C(=O)N2CCC[C@H]2C(=O)N[C@@H](Cc2c[nH]c3ccccc23)C(=O)N[C@@H](CCN)C(=O)N[C@@H](Cc2c[nH]c3ccccc23)C(=O)N1C [Example 6040] ({CH2CO}-Y[NMeA]NP[Dap]LPW[Dab]W[NMeNle][NMeNle]LCG-NH2; thioether N-14)
